Data taken from ChEMBL document CHEMBL1921770, “Synthesis and structure-activity relationship (SAR) of (5,7-disubstituted 3-phenylsulfonyl-pyrazolo[1,5-a]pyrimidin-2-yl)-methylamines as potent serotonin 5-HT(6) receptor (5-HT(6)R) antagonists” (J Med Chem, 2011).
One block for each compound: values may come before it. Calls of active or inactive are those of the source. The calls are words filed in the database; no cut-off is given here.

Assays:
[1] = target: T1, 5-hydroxytryptamine receptor 6 (Homo sapiens, UniProt P50406); assay: Inhibition of human recombinant 5-HT6 receptor expressed in human HEK293 cells assessed as inhibition of serotonin-induced cAMP accumulation; format: functional, cell-based
[2] = target: T2, 5-hydroxytryptamine receptor 2C (Homo sapiens) (UniProt P28335); assay: Inhibition of serotonin 5-HT2C receptor at 1 uM by ligand displacement assay
T2 sequence (whole entry): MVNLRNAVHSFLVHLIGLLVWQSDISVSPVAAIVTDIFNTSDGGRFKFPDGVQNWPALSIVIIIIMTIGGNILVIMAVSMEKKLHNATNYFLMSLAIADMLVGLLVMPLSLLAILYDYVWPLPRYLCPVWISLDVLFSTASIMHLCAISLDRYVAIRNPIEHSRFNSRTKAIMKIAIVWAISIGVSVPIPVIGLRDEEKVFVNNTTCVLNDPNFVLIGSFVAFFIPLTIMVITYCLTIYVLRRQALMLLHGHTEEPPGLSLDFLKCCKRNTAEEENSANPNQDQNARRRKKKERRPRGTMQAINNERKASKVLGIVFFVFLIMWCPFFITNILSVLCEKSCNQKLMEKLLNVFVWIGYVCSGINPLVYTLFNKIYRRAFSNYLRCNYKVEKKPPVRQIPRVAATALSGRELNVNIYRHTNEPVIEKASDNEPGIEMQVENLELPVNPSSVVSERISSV

[3] = target: T1, 5-hydroxytryptamine receptor 6; assay: Antagonist activity at human recombinant 5-HT6 receptor expressed in human HEK293 cells assessed as inhibition of serotonin-induced cAMP accumulation; format: functional, cell-based; conditions: read-out: pA2 (converted)
[4] = target: T1, 5-hydroxytryptamine receptor 6; assay: Partial agonist activity at human recombinant 5-HT6 receptor expressed in human HEK293 cells assessed as inhibition of serotonin-induced cAMP accumulation; format: functional, cell-based
[5] = target: D(4) dopamine receptor (Homo sapiens) (UniProt P21917); assay: Inhibition of dopamine D4.4 receptor at 1 uM by ligand displacement assay
[6] = Inhibition of dopamine D4.7 receptor at 1 uM by ligand displacement assay
[7] = target: D(1B) dopamine receptor (Homo sapiens) (UniProt P21918); assay: Inhibition of dopamine D5 receptor at 1 uM by ligand displacement assay
[8] = target: Histamine H1 receptor (Homo sapiens) (UniProt P35367); assay: Inhibition of histamine H1 receptor at 1 uM by ligand displacement assay
[9] = target: Histamine H2 receptor (Homo sapiens) (UniProt P25021); assay: Inhibition of histamine H2 receptor at 1 uM by ligand displacement assay
[10] = target: Histamine H3 receptor (Homo sapiens) (UniProt Q9Y5N1); assay: Inhibition of histamine H3 receptor at 1 uM by ligand displacement assay
[11] = target: Muscarinic acetylcholine receptor M1 (Homo sapiens) (UniProt P11229); assay: Inhibition of muscarinic M1 receptor at 1 uM by ligand displacement assay
[12] = target: Muscarinic acetylcholine receptor M2 (Homo sapiens) (UniProt P08172); assay: Inhibition of muscarinic M2 receptor at 1 uM by ligand displacement assay
[13] = target: Muscarinic acetylcholine receptor M3 (Homo sapiens) (UniProt P20309); assay: Inhibition of muscarinic M3 receptor at 1 uM by ligand displacement assay
[14] = target: Muscarinic acetylcholine receptor M4 (Homo sapiens) (UniProt P08173); assay: Inhibition of muscarinic M4 receptor at 1 uM by ligand displacement assay
[15] = target: 5-hydroxytryptamine receptor 1A (Homo sapiens) (UniProt P08908); assay: Inhibition of serotonin 5-HT1A receptor at 1 uM by ligand displacement assay
[16] = target: 5-hydroxytryptamine receptor 1B (Homo sapiens) (UniProt P28222); assay: Inhibition of serotonin 5-HT1B receptor at 1 uM by ligand displacement assay
[17] = target: 5-hydroxytryptamine receptor 2A (Homo sapiens) (UniProt P28223); assay: Inhibition of serotonin 5-HT2A receptor at 1 uM by ligand displacement assay
[18] = target: 5-hydroxytryptamine receptor 2B (Homo sapiens) (UniProt P41595); assay: Displacement of[3H]lysergic acid […] 5-HT2B receptor at 1 uM by ligand displacement assay
[19] = target: Adenosine receptor A1 (Homo sapiens) (UniProt P30542); assay: Inhibition of adenosine A1 receptor at 1 uM by ligand displacement assay
[20] = target: Adenosine receptor A2a (Homo sapiens) (UniProt P29274); assay: Inhibition of adenosine A2A receptor at 1 uM by ligand displacement assay
[21] = target: Adenosine receptor A2b (Homo sapiens) (UniProt P29275); assay: Inhibition of adenosine A2B receptor at 1 uM by ligand displacement assay
[22] = target: Adenosine receptor A3 (Homo sapiens) (UniProt P0DMS8); assay: Inhibition of adenosine A3 receptor at 1 uM by ligand displacement assay
[23] = Inhibition of adrenergic alpha1 receptor at 1 uM by ligand displacement assay
[24] = target: Alpha-2A adrenergic receptor (Homo sapiens) (UniProt P08913); assay: Inhibition of adrenergic alpha2 receptor at 1 uM by ligand displacement assay
[25] = Inhibition of adrenergic beta receptor at 1 uM by ligand displacement assay
[26] = target: D(1A) dopamine receptor (Homo sapiens) (UniProt P21728); assay: Inhibition of dopamine D1 receptor at 1 uM by ligand displacement assay
[27] = target: D(2) dopamine receptor (Homo sapiens) (UniProt P14416); assay: Inhibition of dopamine D2S receptor at 1 uM by ligand displacement assay
[28] = target: D(3) dopamine receptor (Homo sapiens) (UniProt P35462); assay: Inhibition of dopamine D3 receptor at 1 uM by ligand displacement assay
[29] = Inhibition of dopamine D4.2 receptor at 1 uM by ligand displacement assay
[30] = target: 5-hydroxytryptamine receptor 3A (Homo sapiens) (UniProt P46098); assay: Inhibition of serotonin 5-HT3 receptor at 1 uM by ligand displacement assay
[31] = target: 5-hydroxytryptamine receptor 4 (Homo sapiens) (UniProt Q13639); assay: Inhibition of serotonin 5-HT4 receptor at 1 uM by ligand displacement assay
[32] = target: 5-hydroxytryptamine receptor 5A (Homo sapiens) (UniProt P47898); assay: Inhibition of serotonin 5-HT5A receptor at 1 uM by ligand displacement assay
[33] = target: T1, 5-hydroxytryptamine receptor 6; assay: Displacement of[3H]lysergic acid […] from 5-HT6 receptor at 1 uM by ligand displacement assay
[34] = target: 5-hydroxytryptamine receptor 7 (Homo sapiens) (UniProt P34969); assay: Inhibition of serotonin 5-HT7 receptor at 1 uM by ligand displacement assay
[35] = target: Voltage-gated inwardly rectifying potassium channel KCNH2 (Homo sapiens, UniProt Q12809); assay: Inhibition of human Erg at 1 uM by ligand displacement assay

T1 sequence (P50406 whole entry): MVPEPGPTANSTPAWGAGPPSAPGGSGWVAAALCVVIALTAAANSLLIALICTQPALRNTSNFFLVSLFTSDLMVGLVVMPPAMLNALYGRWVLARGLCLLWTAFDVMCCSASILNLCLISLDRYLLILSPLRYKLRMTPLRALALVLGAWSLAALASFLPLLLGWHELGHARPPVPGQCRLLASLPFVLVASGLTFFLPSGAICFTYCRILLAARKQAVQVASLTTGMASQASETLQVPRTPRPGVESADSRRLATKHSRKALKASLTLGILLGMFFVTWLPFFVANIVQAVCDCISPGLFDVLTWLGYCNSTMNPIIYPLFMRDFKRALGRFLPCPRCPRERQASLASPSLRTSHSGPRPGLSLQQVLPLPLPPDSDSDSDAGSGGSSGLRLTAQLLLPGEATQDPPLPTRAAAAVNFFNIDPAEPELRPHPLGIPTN
Sequence of 5-hydroxytryptamine receptor 3A (Homo sapiens) (P46098 whole entry): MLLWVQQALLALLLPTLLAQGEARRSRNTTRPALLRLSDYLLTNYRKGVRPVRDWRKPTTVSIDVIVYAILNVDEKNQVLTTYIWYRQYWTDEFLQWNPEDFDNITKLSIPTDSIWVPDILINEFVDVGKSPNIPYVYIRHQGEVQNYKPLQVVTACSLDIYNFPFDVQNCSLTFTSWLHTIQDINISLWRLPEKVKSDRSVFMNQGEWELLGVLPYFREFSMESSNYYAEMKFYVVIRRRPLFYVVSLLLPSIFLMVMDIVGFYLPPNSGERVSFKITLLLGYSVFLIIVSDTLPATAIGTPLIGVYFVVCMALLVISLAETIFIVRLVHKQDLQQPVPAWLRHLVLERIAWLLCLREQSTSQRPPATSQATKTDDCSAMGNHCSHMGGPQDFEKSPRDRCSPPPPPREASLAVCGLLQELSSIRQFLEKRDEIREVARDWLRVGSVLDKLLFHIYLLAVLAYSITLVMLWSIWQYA
Sequence of D(3) dopamine receptor (Homo sapiens) (P35462 whole entry): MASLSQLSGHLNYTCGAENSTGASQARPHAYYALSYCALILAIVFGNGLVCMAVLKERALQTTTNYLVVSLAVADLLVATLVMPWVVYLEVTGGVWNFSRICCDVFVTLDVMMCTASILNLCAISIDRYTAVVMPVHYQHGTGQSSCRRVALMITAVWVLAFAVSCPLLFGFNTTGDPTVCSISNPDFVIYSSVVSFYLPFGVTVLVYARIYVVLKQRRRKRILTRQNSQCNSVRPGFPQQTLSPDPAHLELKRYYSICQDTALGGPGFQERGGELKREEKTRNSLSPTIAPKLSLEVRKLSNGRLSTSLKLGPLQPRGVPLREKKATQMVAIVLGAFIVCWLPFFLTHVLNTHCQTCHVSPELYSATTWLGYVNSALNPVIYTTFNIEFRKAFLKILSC
Sequence of D(4) dopamine receptor (Homo sapiens) (P21917 whole entry): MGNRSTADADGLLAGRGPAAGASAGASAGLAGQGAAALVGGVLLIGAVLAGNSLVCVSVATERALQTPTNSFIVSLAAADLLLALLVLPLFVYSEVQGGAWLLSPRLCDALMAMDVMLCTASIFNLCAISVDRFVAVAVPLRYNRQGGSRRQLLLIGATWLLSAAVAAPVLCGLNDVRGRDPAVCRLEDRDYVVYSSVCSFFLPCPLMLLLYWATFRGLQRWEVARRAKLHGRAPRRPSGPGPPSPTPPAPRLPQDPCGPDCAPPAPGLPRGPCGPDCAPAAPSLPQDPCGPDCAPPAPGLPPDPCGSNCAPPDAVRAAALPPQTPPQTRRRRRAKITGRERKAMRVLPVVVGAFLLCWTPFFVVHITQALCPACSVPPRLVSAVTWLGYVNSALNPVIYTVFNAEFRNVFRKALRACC
Sequence of 5-hydroxytryptamine receptor 2B (Homo sapiens) (P41595 whole entry): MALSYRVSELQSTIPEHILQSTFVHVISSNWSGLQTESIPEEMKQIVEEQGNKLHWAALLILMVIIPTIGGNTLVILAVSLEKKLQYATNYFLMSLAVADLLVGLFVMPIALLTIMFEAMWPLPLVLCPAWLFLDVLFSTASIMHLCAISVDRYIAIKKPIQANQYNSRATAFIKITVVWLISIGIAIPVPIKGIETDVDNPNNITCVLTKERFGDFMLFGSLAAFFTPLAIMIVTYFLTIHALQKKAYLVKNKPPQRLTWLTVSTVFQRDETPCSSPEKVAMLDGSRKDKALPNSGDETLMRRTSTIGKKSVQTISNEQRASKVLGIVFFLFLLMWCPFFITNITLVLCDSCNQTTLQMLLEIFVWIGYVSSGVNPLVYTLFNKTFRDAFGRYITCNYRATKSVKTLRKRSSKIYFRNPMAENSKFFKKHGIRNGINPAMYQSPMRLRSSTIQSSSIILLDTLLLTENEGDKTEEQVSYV
Sequence of 5-hydroxytryptamine receptor 1A (Homo sapiens) (P08908 whole entry): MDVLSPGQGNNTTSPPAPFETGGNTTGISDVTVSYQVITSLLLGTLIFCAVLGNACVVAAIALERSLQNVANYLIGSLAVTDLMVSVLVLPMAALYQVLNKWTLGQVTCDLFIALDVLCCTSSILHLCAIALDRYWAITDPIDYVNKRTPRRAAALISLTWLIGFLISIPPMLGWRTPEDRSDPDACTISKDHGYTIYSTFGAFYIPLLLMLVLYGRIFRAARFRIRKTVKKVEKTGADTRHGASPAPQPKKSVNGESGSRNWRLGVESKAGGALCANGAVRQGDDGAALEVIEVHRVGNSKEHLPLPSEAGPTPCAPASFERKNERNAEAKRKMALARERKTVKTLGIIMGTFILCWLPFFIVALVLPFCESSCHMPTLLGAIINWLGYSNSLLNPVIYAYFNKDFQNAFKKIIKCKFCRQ
Sequence of Adenosine receptor A1 (Homo sapiens) (P30542 whole entry): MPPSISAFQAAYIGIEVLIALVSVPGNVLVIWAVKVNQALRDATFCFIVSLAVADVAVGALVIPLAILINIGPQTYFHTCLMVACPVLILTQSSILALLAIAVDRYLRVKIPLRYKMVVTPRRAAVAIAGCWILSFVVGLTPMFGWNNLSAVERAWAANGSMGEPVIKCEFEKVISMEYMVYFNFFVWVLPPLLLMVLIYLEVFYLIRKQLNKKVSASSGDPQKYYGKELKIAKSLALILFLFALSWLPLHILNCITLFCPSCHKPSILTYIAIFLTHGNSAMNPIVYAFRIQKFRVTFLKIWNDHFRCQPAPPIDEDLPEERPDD
Sequence of Muscarinic acetylcholine receptor M2 (Homo sapiens) (P08172 whole entry): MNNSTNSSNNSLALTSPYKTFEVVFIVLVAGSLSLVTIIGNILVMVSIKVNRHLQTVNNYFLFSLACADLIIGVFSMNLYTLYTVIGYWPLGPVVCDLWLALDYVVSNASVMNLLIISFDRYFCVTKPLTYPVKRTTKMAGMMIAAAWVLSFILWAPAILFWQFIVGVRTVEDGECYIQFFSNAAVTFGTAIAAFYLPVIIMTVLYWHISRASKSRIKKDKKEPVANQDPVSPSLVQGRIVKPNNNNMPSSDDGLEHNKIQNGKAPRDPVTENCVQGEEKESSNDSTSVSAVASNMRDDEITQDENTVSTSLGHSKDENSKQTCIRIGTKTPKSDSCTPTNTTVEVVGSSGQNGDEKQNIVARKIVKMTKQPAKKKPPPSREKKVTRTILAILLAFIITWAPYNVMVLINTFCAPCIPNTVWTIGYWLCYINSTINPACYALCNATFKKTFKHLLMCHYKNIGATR
Sequence of Histamine H1 receptor (Homo sapiens) (P35367 whole entry): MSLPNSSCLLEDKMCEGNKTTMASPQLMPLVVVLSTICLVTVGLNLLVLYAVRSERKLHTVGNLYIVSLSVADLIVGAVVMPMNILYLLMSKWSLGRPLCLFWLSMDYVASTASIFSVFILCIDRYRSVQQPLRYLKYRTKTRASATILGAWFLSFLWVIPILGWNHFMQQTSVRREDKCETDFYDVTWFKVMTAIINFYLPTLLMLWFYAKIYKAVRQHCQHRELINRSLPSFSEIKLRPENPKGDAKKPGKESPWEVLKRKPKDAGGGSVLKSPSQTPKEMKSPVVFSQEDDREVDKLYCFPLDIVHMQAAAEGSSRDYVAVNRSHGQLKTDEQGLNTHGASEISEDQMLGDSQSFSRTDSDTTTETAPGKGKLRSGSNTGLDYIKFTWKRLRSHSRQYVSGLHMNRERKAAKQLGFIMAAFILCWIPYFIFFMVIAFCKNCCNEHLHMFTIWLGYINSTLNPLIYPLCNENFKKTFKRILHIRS
Sequence of Histamine H2 receptor (Homo sapiens) (P25021 whole entry): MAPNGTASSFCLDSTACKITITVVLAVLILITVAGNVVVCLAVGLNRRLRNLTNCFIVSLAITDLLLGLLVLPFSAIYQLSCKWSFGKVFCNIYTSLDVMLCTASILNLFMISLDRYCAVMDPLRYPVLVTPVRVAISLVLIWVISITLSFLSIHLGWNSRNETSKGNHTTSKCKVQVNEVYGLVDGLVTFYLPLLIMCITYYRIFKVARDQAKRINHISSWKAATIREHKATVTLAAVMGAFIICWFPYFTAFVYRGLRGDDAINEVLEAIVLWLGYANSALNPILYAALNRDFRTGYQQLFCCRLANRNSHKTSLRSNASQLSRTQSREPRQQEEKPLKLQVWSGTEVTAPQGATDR
Sequence of D(1B) dopamine receptor (Homo sapiens) (P21918 whole entry): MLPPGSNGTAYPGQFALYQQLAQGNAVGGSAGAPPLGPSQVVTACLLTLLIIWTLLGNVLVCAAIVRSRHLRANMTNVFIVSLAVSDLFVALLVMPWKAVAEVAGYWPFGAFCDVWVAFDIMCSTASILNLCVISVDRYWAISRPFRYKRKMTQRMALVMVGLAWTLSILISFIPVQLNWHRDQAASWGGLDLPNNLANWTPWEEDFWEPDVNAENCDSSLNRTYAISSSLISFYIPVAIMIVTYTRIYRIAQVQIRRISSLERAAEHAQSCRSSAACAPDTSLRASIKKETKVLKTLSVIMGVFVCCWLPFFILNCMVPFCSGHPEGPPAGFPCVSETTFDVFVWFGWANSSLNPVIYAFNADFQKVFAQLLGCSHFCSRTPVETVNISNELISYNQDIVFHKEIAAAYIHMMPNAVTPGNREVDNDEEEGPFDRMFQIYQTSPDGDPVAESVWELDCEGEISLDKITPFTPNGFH

SMILES: CNc1nn2c(NCCCN(C)C)cc(C)nc2c1S(=O)(=O)c1ccccc1
Ki ([1]; read-out: Ki): 112 nM

SMILES: CNc1nn2c(N)cc(C)nc2c1S(=O)(=O)c1cccc(Cl)c1
Ki ([1]; read-out: pKi (converted)): 0.219 nM

SMILES: CNc1nn2c(NCCN(C)C)cc(C)nc2c1S(=O)(=O)c1ccccc1
Ki ([1]; read-out: pKi (converted)): 69.2 nM

SMILES: CNc1nn2c(N)c(Cl)c(C)nc2c1S(=O)(=O)c1cccc(Cl)c1
Ki ([1]; read-out: pKi (converted)): 18.6 nM

SMILES: CNc1nn2c(CN(C)C)cc(C)nc2c1S(=O)(=O)c1ccccc1
Ki ([1]; read-out: pKi (converted)): 1.82 nM

SMILES: CNc1nn2c(C)c(CN(C)C)c(C)nc2c1S(=O)(=O)c1ccccc1
Ki ([1]; read-out: pKi (converted)): 0.708 nM

SMILES: CNc1nn2c(CCN)cc(C)nc2c1S(=O)(=O)c1ccccc1
Kb [3]: 3.98 nM
Ki [4]: 3.09 nM

SMILES: CNc1nn2c(C)c(CN(C)C)c(C)nc2c1S(=O)(=O)c1cccc(Cl)c1
Ki ([1]; read-out: pKi (converted)): 0.417 nM

SMILES: CNc1nn2c(CCN(C)C)cc(C)nc2c1S(=O)(=O)c1ccccc1
Ki [4]: 33.9 nM

SMILES: CNc1nn2c(C)c(NC(C)=O)c(C)nc2c1S(=O)(=O)c1ccccc1
Ki ([1]; read-out: pKi (converted)): 4.68 nM

SMILES: CNc1nn2c(N(C)CCN(C)C)cc(C)nc2c1S(=O)(=O)c1ccccc1
Ki ([1]; read-out: pKi (converted)): 22.4 nM

SMILES: CNc1nn2c(C)c(CN(C)C)c(C)nc2c1S(=O)(=O)c1cccc(F)c1
Ki ([1]; read-out: pKi (converted)): 0.891 nM

SMILES: CNc1nn2c(C)c(CN)c(C)nc2c1S(=O)(=O)c1cccc(Cl)c1
Ki ([1]; read-out: pKi (converted)): 0.55 nM

SMILES: CNc1nn2c(N(C)C)cc(C)nc2c1S(=O)(=O)c1ccccc1
Ki ([1]; read-out: pKi (converted)): 0.347 nM

SMILES: CNc1nn2c(C)c(CCN(C)C)c(C)nc2c1S(=O)(=O)c1ccccc1
Ki ([1]; read-out: pKi (converted)): 2.09 nM

Continued, in another order:

Ki ([1]; read-out: Ki): 0.85 nM
SMILES: CSc1nn2c(N3CCNCC3)c3c(nc2c1S(=O)(=O)c1ccccc1)CCC3

Ki ([1]; read-out: pKi (converted)): 0.263 nM
SMILES: CNc1nn2c(C)cc(C)nc2c1S(=O)(=O)c1ccccc1

inhibition [2]: inactive
Ki ([1]; read-out: pKi (converted)): 0.525 nM
Kb [3]: 0.398 nM
SMILES: CNc1nn2c(C)c(N)c(C)nc2c1S(=O)(=O)c1ccccc1

Ki ([1]; read-out: pKi (converted)): 16.6 nM
SMILES: CNc1nn2c(N3CCOCC3)cc(C)nc2c1S(=O)(=O)c1ccccc1

inhibition [5]: inactive
inhibition [6]: inactive
inhibition [7]: inactive
inhibition [8]: inactive
inhibition [9]: inactive
inhibition [10]: inactive
inhibition [11]: inactive
inhibition [12]: inactive
inhibition [13]: inactive
inhibition [14]: inactive
inhibition [15]: inactive
inhibition [16]: inactive
inhibition [17]: inactive
inhibition [18]: inactive
inhibition [2]: 50%
Ki ([1]; read-out: pKi (converted)): 0.302 nM
Kb [3]: 0.501 nM
inhibition [19]: inactive
inhibition [20]: inactive
inhibition [21]: inactive
inhibition [22]: inactive
inhibition [23]: inactive
inhibition [24]: inactive
inhibition [25]: inactive
inhibition [26]: inactive
inhibition [27]: inactive
inhibition [28]: inactive
inhibition [29]: inactive
inhibition [30]: inactive
inhibition [31]: inactive
inhibition [32]: inactive
inhibition [33]: 100%
inhibition [34]: inactive
SMILES: CNc1nn2c(N)cc(C)nc2c1S(=O)(=O)c1ccccc1
inhibition (INH) [35]: Not Active

inhibition [2]: inactive
Ki ([1]; read-out: pKi (converted)): 0.209 nM
SMILES: CNc1nn2c(C)c(N(C)C)c(C)nc2c1S(=O)(=O)c1ccccc1

inhibition [2]: inactive
Ki ([1]; read-out: pKi (converted)): 0.977 nM
SMILES: CNc1nn2c(C)cc(CN)nc2c1S(=O)(=O)c1ccccc1

Ki ([1]; read-out: pKi (converted)): 0.575 nM
SMILES: CNc1nn2c(NC)cc(C)nc2c1S(=O)(=O)c1ccccc1

Ki ([1]; read-out: pKi (converted)): 1.86 nM
SMILES: CNc1nn2c(CN)cc(C)nc2c1S(=O)(=O)c1ccccc1

Ki ([1]; read-out: pKi (converted)): 0.646 nM
SMILES: CNc1nn2c(C)c(CN)c(C)nc2c1S(=O)(=O)c1ccccc1

Ki ([1]; read-out: Ki): 0.14 nM
SMILES: CNc1nn2c(N)c(Cl)c(C)nc2c1S(=O)(=O)c1ccccc1
